Reference: patent US4593104A, “2-halo-N-(azole-1-yl-methyl)-substituted acetanilides” (BASF Aktiengesellschaft, priority 1976, dated 1986)

Legend:
Glyc. max = experiment: preemergence application in the open, % damage; type: in vivo, Glycine max
Procedure: (§1) The experiments were carried out on small plots. The soil was a sandy loam having a pH of from 5 to 6 and containing from 1 to 1.5% humus. The treatment was preemergence, the active ingredients being applied immediately or at the latest 3 days after sowing. The crop plants were sown in rows. The weed flora was made up of the most widely varying species and was natural; the weed flora depended on the time of the year and in part on the crop (e.g., spring-germinating, summer-germinating). The substances were emulsified or suspended in water as the vehicle, and applied by means of a motor-driven plot spray mounted on a hitch. When no rain fell, the plots were watered to ensure germination and growth of the crop plants and weeds. All the experiments were run for several weeks. Over this period, assessments were made at certain intervals on the 0 to 100 scale.

Matric. spp. = experiment: postemergence application in the greenhouse, % damage; type: in vivo
From the text: (§2) The vessels employed were plastic flowerpots having a volume of 300 cm^3; the substrate was a sandy loam containing about 1.5% humus. The seeds of the test plants (see Table 1) were sown shallow, and separated according to species. In the case of Cyperus esculentus, pregerminated tubers were planted. In the preemergence treatment, the active ingredients were then immediately applied to the surface of the soil. They were suspended or emulsified in water as the vehicle, and sprayed through atomizing nozzles. After the agents had been applied, the vessels were lightly sprinkler-irrigated to set germination and growth going, and to activate the chemical agents. The vessels were then covered with transparent plastic hoods until the plants had taken root. This cover ensured uniform germination of the test plants (to the extent that this was not impaired by the chemicals), and prevented readily volatile substances from evaporating.
(§3) For postemergence treatment, the plants were first grown to a height of from 3 to 10 cm, depending on their habit, before treated. Hoods were not placed on the pots. The experiments were set up in the greenhouse, hotter areas (25° to 40° C.) being preferred for heat-loving species, and 15° to 30° C. for plants from moderate climates. The experiments were carried out for from 4 to 6 weeks. During this period the plants were tended and their reaction to the various treatments was assessed. The following tables contain the substances investigated, the application rates in kg/ha of active ingredient, and the test plant species. Assessments were made on a 0 to 100 scale, 0 denoting no damage or normal emergence, and 100 denoting no emergence or complete destruction of at least the visible plant parts.

Stell. med. = experiment: as above; type: in vivo
From the text: as §2, §3

Avena fat. = experiment: as above; type: in vivo
From the text: as §2, §3

Chrys. seget. [1] = experiment: as above; type: in vivo
From the text: as §2, §3

Setaria spp. = experiment: as above; type: in vivo
From the text: as §2, §3

Alopec. myosur. [2] = experiment: as above; type: in vivo
From the text: as §2, §3

Amar. retro. [3] = experiment: preemergence application in the open, % damage; type: in vivo
Procedure: as §1

Brassica napus = experiment: preemergence application in the open, % damage; type: in vivo; settings: 2.0 kg/ha
Procedure: as §1

Stellaria media = experiment: preemergence application in the open, % damage; type: in vivo; settings: 2.0 kg/ha
Procedure: as §1

Echin. c.g. = experiment: preemergence application in the open, % damage; type: in vivo
Procedure: as §1

Anth./Matric. = experiment: preemergence application in the open, % damage; type: in vivo; settings: 2.0 kg/ha
Procedure: as §1

Chenop. spp. = experiment: preemergence application in the open, % damage; type: in vivo
Procedure: as §1

Galins. spp. = experiment: preemergence application in the open, % damage; type: in vivo
Procedure: as §1

Lamium spp. = experiment: preemergence application in the open, % damage; type: in vivo; settings: 2.0 kg/ha
Procedure: as §1

Alopec. myosur. [4] = experiment: preemergence application in the open, % damage; type: in vivo; settings: 2.0 kg/ha
Procedure: as §1

Cyper. escul. = experiment: postemergence application in the greenhouse, % damage; type: in vivo, Cyperus esculentus
From the text: as §2, §3

Amar. retro. [5] = experiment: preemergence treatment in the greenhouse, % damage; type: in vivo; settings: one value printed for two rates (0.125 0.25 kg/ha)
In short: (§4)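 Greenhouse herbicide test at rates in kg/ha a.i. Pre-em soil spray right after sowing, then irrigation and hooding; post-em on 3–10 cm plants. Rated 0–100 over 4–6 weeks.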

Bromus spp. = experiment: preemergence treatment in the greenhouse, % damage; type: in vivo
In short: as §4

Poa annua = experiment: preemergence treatment in the greenhouse, % damage; type: in vivo
In short: as §4

Euph. gen. = experiment: preemergence treatment in the greenhouse, % damage; type: in vivo; settings: 0.25 kg/ha
In short: as §4

Sorgh. halep. = experiment: preemergence treatment in the greenhouse, % damage; type: in vivo
In short: as §4

Chrys. seget. [6] = experiment: preemergence treatment in the greenhouse, % damage; type: in vivo; settings: 0.25 kg/ha
In short: as §4

Cyp. diff. = experiment: preemergence treatment in the greenhouse, % damage; type: in vivo
In short: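 Preemergence: active sprayed onto the soil surface immediately after sowing; pots sprinkler-irrigated and covered with transparent hoods until plants rooted. Postemergence: unhooded plants sprayed at 3–10 cm. Both run 4–6 weeks in greenhouse; damage 0 = none, 100 = no emergence or total kill of visible parts.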

Solanum nigrum = experiment: preemergence treatment in the greenhouse, % damage; type: in vivo; settings: 0.25 kg/ha
In short: as §4

Cc1cccc(C)c1N(Cn1cccn1)C(=O)CCl [Compound 5]
% damage (Glyc. max; 0,5 kg/ha): 0% | % damage (Glyc. max; 1,0 kg/ha): 4% | % damage (Matric. spp.; 1.0 kg/ha): 95% | % damage (Matric. spp.; 2.0 kg/ha): 95% | % damage (Stell. med.; 1.0 kg/ha): 95% | % damage (Stell. med.; 2.0 kg/ha): 98% | % damage (Avena fat.; 1.0 kg/ha): 90% | % damage (Avena fat.; 2.0 kg/ha): 92% | % damage (Chrys. seget. [1]; 1.0 kg/ha): 98% | % damage (Chrys. seget. [1]; 2.0 kg/ha): 98% | % damage (Setaria spp.; 1.0 kg/ha): 82% | % damage (Setaria spp.; 2.0 kg/ha): 85% | % damage (Alopec. myosur. [2]; 1.0 kg/ha): 80% | % damage (Alopec. myosur. [2]; 2.0 kg/ha): 90% | % damage (Amar. retro. [3]; 0,5 kg/ha): 100% | % damage (Amar. retro. [3]; 1,0 kg/ha): 100% | % damage (Brassica napus): 7.5% | % damage (Stellaria media): 100% | % damage (Echin. c.g.; 0,5 kg/ha): 100% | % damage (Echin. c.g.; 1,0 kg/ha): 100% | % damage (Anth./Matric.): 100% | % damage (Chenop. spp.; 0,5 kg/ha): 69% | % damage (Chenop. spp.; 1,0 kg/ha): 85% | % damage (Galins. spp.; 0,5 kg/ha): 91% | % damage (Galins. spp.; 1,0 kg/ha): 100% | % damage (Lamium spp.): 100% | % damage (Alopec. myosur. [4]): 95% | % damage (Cyper. escul.; 1.0 kg/ha): 70% | % damage (Cyper. escul.; 2.0 kg/ha): 72% | % damage (Amar. retro. [5]): 100% | % damage (Bromus spp.; 0.125 kg/ha): 90% | % damage (Bromus spp.; 0.25 kg/ha): 95% | % damage (Poa annua; 0.125 kg/ha): 100% | % damage (Poa annua; 0.25 kg/ha): 100% | % damage (Euph. gen.): 100% | % damage (Sorgh. halep.; 0.125 kg/ha): 95% | % damage (Sorgh. halep.; 0.25 kg/ha): 95% | % damage (Chrys. seget. [6]): 100% | % damage (Cyp. diff.; 0.125 kg/ha): 100% | % damage (Cyp. diff.; 0.25 kg/ha): 100% | % damage (Solanum nigrum): 100%
